For one assay, the target named is T1, MMP-9 (Homo sapiens, UniProt P14780).
T1 construct: made in house; host or cells: MMP-9-transfected HT1080 cells (spent media)
In words: In vitro MMP inhibition, IC50 determination (fluorogenic substrate I). Type of assay: biochemical. The settings on record: value in parenthesis; read-out: MMP-9 (IC-50). The procedure:
Several hydroxamic acids and salts thereof were analyzed in in vitro assays to determine their ability to inhibit the MMP cleavage of peptide substrates. […] and IC50 constants were calculated from the assayed hydroxamic acid-MMP interactions. Human recombinant MMP-1, MMP-2, MMP-9, MMP-13, and MMP-14 were used in this assay. All enzymes were prepared in Assignee's laboratories following usual laboratory procedures. Protocols for the preparation and use of these enzymes are available in the scientific literature. See, e.g., Enzyme Nomenclature (Academic Press, San Diego, Calif., 1992) (and the citations therein). See also, Freije et al., “Molecular cloning and expression of collagenase-3, a novel human matrix metalloproteinase produced by breast carcinomas,” J Biol. Chem., 269(24), 16766-16773 (1994). The MMP-9 proenzyme was purified by gelatin Sepharose chromatography from spent media of MMP-9-transfected HT1080 cells provided by Dr. Howard Welgus of Washington University (St. Louis, Mo.). All MMPs were activated using 4-aminophenylmercuric acetate (“APMA”, Sigma Chemical, St. Louis, Mo.) or trypsin. MMP-9 also was activated using human recombinant MMP-3 (purified in Assignee's laboratory following standard cloning and purification techniques). […] Substrate (I) was purchased from Baychem (Redwood City, Calif.), and substrate II was prepared Assignee's laboratory. Substrate I was used in the IC50 determination assays, while substrate II was used in the Ki determination assays. In the absence of MMP inhibitory activity, either substrate is cleaved at the Gly-Leu peptide bond. […] The stock solutions of the assayed hydroxamic acids (or salts thereof) were prepared in 1% dimethyl sulfoxide (DMSO). […] The experiment controls contained the same amount of Buffer A/DMSO as the assayed sample, but contained no hydroxamic acid (or salt thereof). The assays from which the IC50 determinations were made were performed as follows. […] Louis, Mo.). The assayed hydroxamic acid samples were incubated in MicrofluorTM White Plates (Dynatech, Chantilly, Va.) and analyzed on a Perkin Elmer […] plate reader (Norwalk, Conn.). The excitation wavelength was 328 nm, and the emission wavelength-415 nm. […] As stated in the previous paragraph, samples containing varying concentrations of the same assayed hydroxamic acid were prepared. Inhibition was measured as a reduction in fluorescent intensity as a function of MMP inhibitor concentration. […] All values in Table 2 are given in nM units. The IC50 measurements are in parenthesis.

The next assay has as its target T2, MMP-1 (Homo sapiens, UniProt P03956).
T2 construct: made in house; host or cells: MMP-1-transfected HT-1080 cells (spent media)
T2 sequence (P03956 100-469): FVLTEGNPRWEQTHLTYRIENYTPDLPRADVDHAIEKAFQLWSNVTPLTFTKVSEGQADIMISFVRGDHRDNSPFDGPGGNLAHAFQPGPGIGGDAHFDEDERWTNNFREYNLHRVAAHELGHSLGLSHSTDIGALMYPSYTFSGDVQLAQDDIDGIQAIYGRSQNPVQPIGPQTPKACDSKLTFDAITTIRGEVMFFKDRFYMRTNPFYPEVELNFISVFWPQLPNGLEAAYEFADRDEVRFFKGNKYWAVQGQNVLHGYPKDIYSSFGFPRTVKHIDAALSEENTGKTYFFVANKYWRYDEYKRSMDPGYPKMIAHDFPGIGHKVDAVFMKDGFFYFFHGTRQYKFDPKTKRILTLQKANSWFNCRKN
Described as above. The settings on record: value in parenthesis; read-out: MMP-1 (IC-50). The assay is classed as biochemical. The procedure:
Several hydroxamic acids and salts thereof were analyzed in in vitro assays to determine their ability to inhibit the MMP cleavage of peptide substrates. […] and IC50 constants were calculated from the assayed hydroxamic acid-MMP interactions. Human recombinant MMP-1, MMP-2, MMP-9, MMP-13, and MMP-14 were used in this assay. All enzymes were prepared in Assignee's laboratories following usual laboratory procedures. Protocols for the preparation and use of these enzymes are available in the scientific literature. See, e.g., Enzyme Nomenclature (Academic Press, San Diego, Calif., 1992) (and the citations therein). See also, Freije et al., “Molecular cloning and expression of collagenase-3, a novel human matrix metalloproteinase produced by breast carcinomas,” J Biol. Chem., 269(24), 16766-16773 (1994). The MMP-1 proenzyme was purified from the spent media of MMP-1-transfected HT-1080 cells provided by Dr. Harold Welgus of Washington University (St. Louis, Mo.). The protein was purified on a zinc chelating column. All MMPs were activated using 4-aminophenylmercuric acetate (“APMA”, Sigma Chemical, St. Louis, Mo.) or trypsin. MMP-9 also was activated using human recombinant MMP-3 (purified in Assignee's laboratory following standard cloning and purification techniques). […] Substrate (I) was purchased from Baychem (Redwood City, Calif.), and substrate II was prepared Assignee's laboratory. Substrate I was used in the IC50 determination assays, while substrate II was used in the Ki determination assays. In the absence of MMP inhibitory activity, either substrate is cleaved at the Gly-Leu peptide bond. […] The stock solutions of the assayed hydroxamic acids (or salts thereof) were prepared in 1% dimethyl sulfoxide (DMSO). […] The experiment controls contained the same amount of Buffer A/DMSO as the assayed sample, but contained no hydroxamic acid (or salt thereof). The assays from which the IC50 determinations were made were performed as follows. […] Louis, Mo.). The assayed hydroxamic acid samples were incubated in MicrofluorTM White Plates (Dynatech, Chantilly, Va.) and analyzed on a Perkin Elmer […] plate reader (Norwalk, Conn.). The excitation wavelength was 328 nm, and the emission wavelength-415 nm. […] As stated in the previous paragraph, samples containing varying concentrations of the same assayed hydroxamic acid were prepared. Inhibition was measured as a reduction in fluorescent intensity as a function of MMP inhibitor concentration. […] All values in Table 2 are given in nM units. The IC50 measurements are in parenthesis.

“And” between values parts separate entries of the source, which are not always exact repeats. Equal entries are not always repeated.

T1 sequence (P14780 107-707 limits assumed): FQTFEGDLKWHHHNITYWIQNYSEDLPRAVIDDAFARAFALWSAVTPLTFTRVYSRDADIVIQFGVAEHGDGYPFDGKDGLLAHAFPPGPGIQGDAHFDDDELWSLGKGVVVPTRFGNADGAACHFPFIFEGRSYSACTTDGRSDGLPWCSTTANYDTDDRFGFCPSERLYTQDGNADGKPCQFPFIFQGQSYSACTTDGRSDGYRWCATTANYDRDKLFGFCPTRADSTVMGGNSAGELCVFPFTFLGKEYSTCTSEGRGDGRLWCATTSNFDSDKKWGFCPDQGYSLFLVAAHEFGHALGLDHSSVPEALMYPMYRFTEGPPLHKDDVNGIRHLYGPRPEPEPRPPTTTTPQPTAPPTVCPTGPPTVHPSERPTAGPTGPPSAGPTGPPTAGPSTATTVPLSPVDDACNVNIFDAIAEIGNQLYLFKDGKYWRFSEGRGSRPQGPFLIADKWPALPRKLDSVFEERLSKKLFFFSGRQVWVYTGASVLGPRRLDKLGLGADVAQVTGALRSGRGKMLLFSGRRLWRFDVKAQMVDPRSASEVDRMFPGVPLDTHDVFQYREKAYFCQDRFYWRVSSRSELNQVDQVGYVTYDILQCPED

On to `O=C(NO)C1(S(=O)(=O)N2CCN(c3ccc(OC(F)(F)F)cc3)CC2)CCN(C2CC2)CC1` [Example 203], for which the IC50 was 3.2 nM and 1.9 nM at MMP-9; above 10000 nM at MMP-1.

As to `CCCc1ccc(N2CCN(S(=O)(=O)C3(C(=O)NO)CCN(CCOC)CC3)CC2)cc1` [Example 200], the IC50 is below 0.1 nM at MMP-9 and above 10000 nM at MMP-1.

In the case of `COCCN1CCC(C(=O)NO)(S(=O)(=O)N2CCN(c3ccc(Br)cc3)CC2)CC1` [Example 201], the figures for the IC50 at MMP-9 and on MMP-1 were 5.7 nM and 6850 nM, respectively.

On to `COCCN1CCC(C(=O)NO)(S(=O)(=O)N2CCN(c3ccc(OC(F)(F)F)cc3)CC2)CC1` [Example 202], for which the results for the IC50 on MMP-9 and on MMP-1 were 6.3 nM and above 10000 nM, respectively.

In the case of `CCCCCCc1ccc(N2CCN(S(=O)(=O)C3(C(=O)NO)CCN(CCOC)CC3)CC2)cc1` [Example 199], the IC50 on MMP-9 was 1 nM; on MMP-1, above 10000 nM.

Source of the values: patent US20050209278A1, “Piperidinyl- and piperazinyl-sulfonylmethyl hydroxamic acids and their use as protease inhibitors” (priority 2002, published 2005).
